Key:
Type in all cases: functional
Conditions in all cases: read-out: IZ
Escherichia coli [1] = assay: Antibacterial activity against Escherichia coli at 250 ppm after 1 hr by agar well diffusion method
Escherichia coli [2] = assay: Antibacterial activity against Escherichia coli at 500 ppm after 1 hr by agar well diffusion method
Staphylococcus aureus [3] = assay: Antibacterial activity against Staphylococcus aureus at 750 ppm after 1 hr by agar well diffusion method
Escherichia coli [4] = assay: Antibacterial activity against Escherichia coli at 750 ppm after 1 hr by agar well diffusion method
Staphylococcus aureus [5] = assay: Antibacterial activity against Staphylococcus aureus at 500 ppm after 1 hr by agar well diffusion method
Staphylococcus aureus [6] = assay: Antibacterial activity against Staphylococcus aureus at 250 ppm after 1 hr by agar well diffusion method
Staphylococcus aureus [7] = assay: Antibacterial activity against Staphylococcus aureus at 100 ppm after 1 hr by agar well diffusion method
Staphylococcus aureus [8] = assay: Antibacterial activity against Staphylococcus aureus at 50 ppm after 1 hr by agar well diffusion method

Structure (SMILES)	zone of inhibition at 250 ppm (Escherichia coli [1]) [mm]	zone of inhibition at 500 ppm (Escherichia coli [2]) [mm]	zone of inhibition at 750 ppm (Staphylococcus aureus [3]) [mm]	zone of inhibition at 750 ppm (Escherichia coli [4]) [mm]	zone of inhibition at 500 ppm (Staphylococcus aureus [5]) [mm]	zone of inhibition at 250 ppm (Staphylococcus aureus [6]) [mm]	zone of inhibition at 100 ppm (Staphylococcus aureus [7]) [mm]	zone of inhibition at 50 ppm (Staphylococcus aureus [8]) [mm]
N#Cc1c(O)nc(N)nc1-c1cccc(Cl)c1	4	7	5	11	–	–	–	–
COc1cc(-c2nc(N)nc(O)c2C#N)cc(OC)c1OC	–	–	13	–	10	–	–	–
N#Cc1c(O)nc(N)nc1-c1ccccc1[N+](=O)[O-]	3	5	15	9	12	–	–	–
N#Cc1c(O)nc(N)nc1-c1cccc([N+](=O)[O-])c1	–	–	14	–	8	4	–	–
N#Cc1c(O)nc(N)nc1-c1ccccc1Cl	–	8	14	10	9	5	–	–
N#Cc1c(O)nc(N)nc1-c1ccc(O)cc1	–	6	11	10	8	5	–	–
CN(C)c1ccc(-c2nc(N)nc(O)c2C#N)cc1	4	7	11	11	9	7	–	–
N#Cc1c(O)nc(N)nc1C/C=C/c1ccccc1	7	9	9	12	5	–	–	–
COc1ccc(C2NC(=N)NC(=O)C2C#N)cc1 (stereo unspecified)	–	–	5	–	–	–	–	–
N#Cc1c(O)nc(N)nc1-c1ccccc1	–	–	18	–	15	15	12	10

From ChEMBL document CHEMBL1158359, “A novel and efficient one step synthesis of 2-amino-5-cyano-6-hydroxy-4-aryl pyrimidines and their anti-bacterial activity” (2009)
